From publication PMC6151511, “Rational Design of Nucleoside–Bile Acid Conjugates Incorporating a Triazole Moiety for Anticancer Evaluation and SAR Exploration” (Molecules : A Journal of Synthetic Chemistry and Natural …, 2017)
Read-outs that look alike come from different tables or passages of the source.

Tests used:
[1] = system: HCT116 colon carcinoma; parameters: method as in doi:10.1039/c3nj00513e; conditions: MTT; ref [6]; cited from earlier work
[2] = system: Normal human skin fibroblast cells; parameters: method as in doi:10.1039/c3nj00513e; conditions: MTT; ref [6]; read-out: IC50 FIBRO; cited from earlier work
[3] = system: K562 leukemia cells; parameters: method as in doi:10.1039/c3nj00513e; conditions: MTT; ref [6]; cited from earlier work
[4] = system: K562 leukemia cells; assay: MTT assay, cell growth inhibition of K562 leukemia cells; assay type: cell-based; conditions: MTT, 72 h incubation, mean of three independent experiments ± SD, IC50 > 50 means inhibition <20% at 50 μM, read-out: IC50 K562
Method: (§1) All conjugated compounds prepared via click chemistry and listed in Table 1 were evaluated in vitro for their cytotoxic activity against K562 leukemia cells and the colon cancer cell line HCT116. Normal human skin fibroblast cells were chosen as a control and cisplatin served as a reference compound. The cytotoxicity was evaluated using the MTT assay (details are reported in the Materials and Methods section). In all experiments the cell growth inhibition of K562 and HCT116 was determined for each compound at concentrations of 10, 25 and 50 μM after 72 h of treatment and up to 100 μM in the case of fibroblasts.
(§2) Cell growth inhibition assays were carried out using the leukemia cell line K562 and colon carcinoma HCT116. Cell lines were obtained from ATCC (Manassas, VA, USA) and maintained in RPMI 1640, supplemented with 10% fetal bovine serum (FBS), penicillin (100 Units mL^−1), streptomycin (100 μg mL^−1) and glutamine (2 mM) (complete medium); the pH of the medium was 7.2 and the incubation was performed at 37 °C in a 5% CO2 atmosphere. Adherent cells were routinely used at 70% of confluence and passaged every 3 days by treatment with 0.05% Trypsin-EDTA (Lonza, Walkersville, MD, USA). K562 cells were routinely fed every 3 days.
(§3) The antiproliferative activity of the compounds was tested using the 3-(4,5-dimethylthiozol-2-yl)2,5-diphenyltetrazolium bromide solution (MTT) assay. K562 and HCT116 were seeded in triplicate in 96-well trays respectively at the density of 5 × 10^3 and 10^4 in 50 μL of complete medium. Stock solutions (50 mM) of each compound were made in DMSO and diluted in complete medium to give final concentrations of 50, 25 and 10 μM. Untreated cells were placed in every plate as a negative control. The cells were exposed to the compounds, in 100 μL total volume, for 72 h.

[5] = system: K562 cells; assay: Annexin V-FITC/PI apoptosis assay by flow cytometry; assay type: cell-based; conditions: 25 and 50 μM, 24 h
Method: In this study we also tested in vitro the nucleoside-alkyne derivatives (namely ALK-A, ALK-G, ALK-dG and ALK-dU) and the N3-BA building blocks (namely 3α-N3-CDC, 3α-N3-UDC, 3α-N3-TUDCA, 23-N3-nor-CDC and 23-N3-nor-UDC). […] (Table 1). To determine whether the antiproliferative activity induced by dA-nor-CDC was related to apoptosis, as previously reported for the corresponding dA-CDC conjugate, K562 cells were treated with compound dA-nor-CDC (25 and 50 μM) for 24 h, then assayed by flow cytometry analysis with Annexin V-FITC staining.
The percentage of apoptotic cells was assessed using the Annexin V assay (Clontech Laboratories, Inc. A Takara Bio Company, Mountain View, CA, USA). Propidium iodide (PI) was used to avoid necrotic cell detection (Annexin−/PI+). The drug-induced apoptotic rate (Annexin+/PI− and Annexin V+/PI+) was compared with the apoptosis in the absence of the drugs used as control (spontaneous apoptosis). K562 cells were cultured in RPMI + 10% FBS in a 6-weels plate for 24 h in the presence of compounds dA-nor-CDC at concentration of 50 and 25 μM. […] Incubation with annexin V for 15 min on ice in dark was directly followed by flow cytometric analysis of the cells with a FACScan (Becton Dickinson, San Jose, CA, USA) at 488 nm and quantified using the Cell Quest Pro software (Becton Dickinson).

[6] = system: Normal human skin fibroblast cells; assay: MTT assay, cytotoxicity on normal fibroblasts (control); assay type: cell-based; conditions: MTT, 72 h incubation, up to 100 μM, mean of three independent experiments ± SD, IC50 > 100 means inhibition <10% at 100 μM, read-out: IC50 FIBRO
Method: as §1, §3

[7] = system: HCT116 colon carcinoma; assay: MTT assay, cell growth inhibition of HCT116 colon carcinoma; assay type: cell-based; conditions: MTT, 72 h incubation, mean of three independent experiments ± SD, IC50 > 50 means inhibition <20% at 50 μM
Method: as §1, §2, §3

[8] = Homo sapiens, Skin fibroblast, 72 h

Structure (SMILES)	IC50 [1]	IC50 [2]	IC50 [3]	IC50 ([4]; Homo sapiens, K562, 72 h)	IC50 [4]	induction of apoptosis (in words) [5]	IC50 [6, 8]	IC50 [6]	IC50 ([7]; Homo sapiens, HCT-116, 72 h)	IC50 [7]
C#CCCCCC#Cc1nc2c(N)ncnc2n1[C@H]1C[C@H](O)[C@@H](CO)O1 [ALK-dA, 8-(1,7-Octadynyl)-2′-deoxyadenosine]	> 50 µM	> 100 µM	> 50 µM							
COC(=O)CCC(C)[C@H]1CCC2C3C(CC[C@@]21C)[C@@]1(C)CC[C@@H](n2cc(CCCCC#Cc4nc5c(N)ncnc5n4[C@H]4C[C@H](O)[C@@H](CO)O4)nn2)CC1C[C@H]3O (some centres unmarked) [dA-CDC]	> 200 µM	> 200 µM	8.5 ± 4 µM							
COC(=O)CCC(C)[C@H]1CCC2C3C(CC[C@@]21C)[C@@]1(C)CC[C@@H](n2cc(CCCCC#Cc4nc5c(N)ncnc5n4[C@H]4C[C@H](O)[C@@H](CO)O4)nn2)CC1C[C@@H]3O (some centres unmarked) [dA-UDC]	> 200 µM	> 200 µM	> 100 µM							
CC(CCn1cc(CCCCC#Cc2nc3c(N)ncnc3n2[C@H]2C[C@H](O)[C@@H](CO)O2)nn1)[C@H]1CCC2C3C(CC[C@@]21C)[C@@]1(C)CC[C@@H](O)CC1C[C@H]3O (some centres unmarked) [dA-nor-CDC]				≤ 25 µM	16.2 ± 2.2 µM	induced apoptosis in a dose dependent manner	~100 µM	91.5 ± 3.5 µM	≤ 25 µM	17 ± 2.5 µM
COC(=O)CCC(C)[C@H]1CCC2C3C(CC[C@@]21C)[C@@]1(C)CC[C@@H](n2cc(CCCCC#Cc4cn([C@H]5C[C@H](O)[C@@H](CO)O5)c(=O)[nH]c4=O)nn2)CC1C[C@@H]3O (some centres unmarked) [dU-UDC]				≤ 25 µM	21.5 ± 2 µM		~100 µM	91.5 ± 4.5 µM	≤ 25 µM	23.5 ± 1.6 µM
CC(CCn1cc(CCCCC#Cc2cn([C@H]3C[C@H](O)[C@@H](CO)O3)c(=O)[nH]c2=O)nn1)[C@H]1CCC2C3C(CC[C@@]21C)[C@@]1(C)CC[C@@H](O)CC1C[C@H]3O (some centres unmarked) [dU-nor-CDC]				42.9 ± 1.9 µM			> 100 µM		> 50 µM	
CC(CCn1cc(CCCCC#Cc2cn([C@H]3C[C@H](O)[C@@H](CO)O3)c(=O)[nH]c2=O)nn1)[C@H]1CCC2C3C(CC[C@@]21C)[C@@]1(C)CC[C@@H](O)CC1C[C@@H]3O (some centres unmarked) [dU-nor-UDC]				≤ 25 µM	24.8 ± 1.5 µM		> 100 µM		43 ± 3.5 µM	
